Experimental data: patent US12083140B2, “Pharmaceutical composition for preventing and treating glaucoma, containing adenosine derivative” (FUTURE MEDICINE CO., LTD., priority 2017, dated 2024)

Tests used:
each cell line = assay: Cytotoxicity, Cyto X cell viability assay kit; type: cell-based
TIMP (TIMP 1, TIMP2) = assay: TIMP enzyme protein and mRNA expression in trabecular meshwork tissue; type: in vivo, C57BL/6J mice; conditions: Example 2 oral 20 mg/kg once a day and 10 mg/kg twice a day; acetazolamide 4.17 mg/kg once a day
Procedure: (§1) In Experimental Example 10, the expression amounts of these proteins and mRNAs in MMP and TIMP enzymes were measured for the eye tissues of the respective laboratory animals which the measurement of the intraocular pressure was completed, and the results are shown in FIG. 14 to FIG. 17. FIG. 14 and FIG. 15 show protein expression amounts of MMP (MMP2, MMP9) and TIMP (TIMP 1, TIMP2) enzymes, respectively. FIG. 16 and FIG. 17 show mRNA expression levels. In FIG. 14 to FIG. 17, Normal represents the expression level of the animal to which the dexamethasone was not treated in Experimental Example 10, Control represents the expression level of the animal to which only the excipient was administered in Experimental Example 10, and Acetazolamide represents the expression level of the animal to which acetazolamide was administered in Experimental Example 10.

[1] = test system: TPA-induced mouse ear edema; assay: Anti-inflammatory activity, TPA-induced mouse ear edema; type: in vivo, ICR mice; conditions: 0.5% in acetone
Procedure: In order to investigate the anti-inflammatory activity of the derivatives of the present invention, the animal experiments were performed as below. Seven-week-old male ICR mice were treated with TPA (12-O-tetradecanoylphorbol 13-acetate, […]) in the right ear. […] The same experiment was performed by treating hydrocortisone used as a treatment agent for inflammation as a control at the same concentration.
Subsequently, secondly, the adenosine derivative compound of the present invention was treated after 6 hours from TPA treatment. Twenty-four hours after TPA treatment, the animals were euthanized using the cervical dislocation method. Then, a right ear sample was obtained using a 6 mm diameter punch. The activity could be confirmed by weighing using a microbalance. The inhibition rate (%) was calculated using the following Equation 1.

rats = assay: Single dose toxicity test; type: in vivo
[2] = test system: extracellular matrix proteins (Fibronectin, SMA and MYOC); assay: Anti-fibrotic effect on trabecular meshwork tissue (immunostaining); type: in vivo, C57BL/6J mice; conditions: Example 2 oral 20 mg/kg once a day and 10 mg/kg twice a day; acetazolamide 4.17 mg/kg once a day
Procedure: In Experimental Example 10, the ocular tissues of each laboratory animal after measurement of intraocular pressure were extracted and sectioned and immunostaining using antibody was performed to confirm the expression of extracellular matrix proteins (Fibronectin, SMA and MYOC) and the results are shown in FIG. 13. In FIG. 13, Normal represents the trabecular meshwork of the animal which dexamethasone was not treated with in Experimental Example 10, Control represents the trabecular meshwork tissue of the animal to which only the excipient was administered in Experimental Example 10, Acetazolamide represents the trabecular meshwork tissue of the animal to which acetazolamide was administered in Experimental Example 10. Fluorescently stained tissue was observed under fluorescence microscope under the same conditions (magnification 200×, exposure time 1 sec).

hERG = hERG (Homo sapiens, UniProt Q12809); assay: Cardiotoxicity, hERG ligand binding assay (fluorescence polarization)
MMP (MMP2, MMP9) = assay: MMP enzyme protein and mRNA expression in trabecular meshwork tissue; type: in vivo, C57BL/6J mice; conditions: Example 2 oral 20 mg/kg once a day and 10 mg/kg twice a day; acetazolamide 4.17 mg/kg once a day
Procedure: as §1

intraocular pressure = assay: Intraocular pressure reduction after oral administration, dexamethasone-elevated intraocular pressure; type: in vivo, C57BL/6J mice; conditions: oral, 5, 10, 20 mg/kg once a day and 10 mg/kg twice a day, 22 days
Procedure: In order to examine the intraocular pressure lowering effect of the derivatives of the present invention, the following animal experiments were performed. […] As controls, only the above excipients were administered to laboratory animals with elevated intraocular pressure once a day, or experimental animals were not treated with dexamethasone or with 4.17 mg/kg of acetazolamide, an intraocular pressure lowering agent, once a day.
Then, the intraocular pressure of the test animal was measured at predetermined intervals for 22 days, and the results are shown in FIG. 8 to FIG. 12. In FIG. 8 to FIG. 12, Control represents a control group in which dexamethasone is not treated to laboratory animals, Vehicle represents a control group in which only excipients were orally administered to laboratory animals with elevated intraocular pressure, and Acetazolamide represents control group in which acetazolamide, an intraocular pressure lowering agent was orally administered to laboratory animals with elevated intraocular pressure.

[3] = test system: histidine-requiring Salmonella (TA98, TA100, TA1535 and TA1537 strains) and tryptophan-requiring E. coli (WP2uvrA (pKM101) strain); assay: Genotoxicity, back-mutation test with and without metabolic activation; type: cell-based

Chain of hERG (Q12809 whole entry): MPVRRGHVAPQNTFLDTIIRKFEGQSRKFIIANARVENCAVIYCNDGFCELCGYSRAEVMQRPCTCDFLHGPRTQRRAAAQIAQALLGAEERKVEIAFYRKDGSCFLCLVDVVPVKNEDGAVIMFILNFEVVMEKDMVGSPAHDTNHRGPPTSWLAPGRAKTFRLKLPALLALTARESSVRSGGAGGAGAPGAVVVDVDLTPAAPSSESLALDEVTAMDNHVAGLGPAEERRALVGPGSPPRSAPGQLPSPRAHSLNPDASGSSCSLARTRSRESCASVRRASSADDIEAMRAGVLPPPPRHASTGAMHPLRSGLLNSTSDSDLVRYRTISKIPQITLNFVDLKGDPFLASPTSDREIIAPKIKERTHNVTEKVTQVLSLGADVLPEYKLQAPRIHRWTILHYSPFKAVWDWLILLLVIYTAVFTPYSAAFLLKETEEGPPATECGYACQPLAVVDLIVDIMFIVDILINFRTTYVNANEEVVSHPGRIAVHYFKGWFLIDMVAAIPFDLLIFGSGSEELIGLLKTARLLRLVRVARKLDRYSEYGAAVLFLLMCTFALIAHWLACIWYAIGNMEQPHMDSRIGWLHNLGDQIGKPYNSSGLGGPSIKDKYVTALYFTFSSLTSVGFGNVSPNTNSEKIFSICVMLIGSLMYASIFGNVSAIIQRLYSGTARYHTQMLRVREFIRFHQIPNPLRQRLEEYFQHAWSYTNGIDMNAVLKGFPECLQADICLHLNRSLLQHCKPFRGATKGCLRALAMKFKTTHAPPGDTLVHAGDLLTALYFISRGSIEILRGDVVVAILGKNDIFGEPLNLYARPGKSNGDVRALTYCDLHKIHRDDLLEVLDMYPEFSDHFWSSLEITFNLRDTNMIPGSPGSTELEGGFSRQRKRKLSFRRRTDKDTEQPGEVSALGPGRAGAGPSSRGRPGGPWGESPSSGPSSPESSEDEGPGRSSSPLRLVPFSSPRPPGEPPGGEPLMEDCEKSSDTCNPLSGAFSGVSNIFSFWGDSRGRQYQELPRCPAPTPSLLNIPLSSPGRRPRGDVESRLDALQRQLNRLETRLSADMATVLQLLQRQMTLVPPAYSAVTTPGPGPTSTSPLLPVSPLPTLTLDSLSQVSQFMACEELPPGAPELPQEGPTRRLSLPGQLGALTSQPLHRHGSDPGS

`O[C@@H]1[C@H](O)CS[C@H]1n1cnc2c(NCc3cccc(Cl)c3)nc(Cl)nc21` [Example 2, (2R,3R,4S)-2-(2-chloro-6-(3-chlorobenzylamino)-9H-purin-9-yl)tetrahydrothiophene-3,4-diol] was tested, and the “toxicity, Cytotoxicity Test” value (each cell line) was “Not found”, the “protein and mRNA expression levels of TIMP enzyme compared with the normal group” value (TIMP (TIMP 1, TIMP2)) was “significantly decreased” and the “TPA-induced mouse ear edema” value [1] was “reduced by a small amount”. For the same compound, the “toxicity, Single dose toxicity test” value (rats; rat, in vivo) was “Not found”, the dead animals (rats; single dose of 2,000 mg/kg, 5 male rats and 5 female rats) was “there was no dead animal” and the “expression of fibronectin, SMA and MYOC protein in trabecular meshwork tissue” value [2] was “greatly reduced”. For the same compound, the “toxicity, Cardiotoxicity test” value (hERG) was “Not found”, the inhibition at 10 µM (hERG; human, hERG channel protein (ligand binding assay), probe red fluorescent hERG channel ligand tracer, 10 μM, read-out: inhibition rate (hERG channel ligand tracer binding)) was at most 50% and the “protein and mRNA expression levels of MMP enzyme compared with the normal group” value (MMP (MMP2, MMP9)) was “significantly increased”. For the same compound, the “intraocular pressure, dose dependence” value (intraocular pressure) was “reduction in intraocular pressure, which was dependent on the dose”, the “toxicity, Genotoxicity test” value [3] was “Not found” and the “number of back-mutation reversion colonies” value ([3]; all doses of each strain, regardless of metabolic activation) was “did not exceed twice the negative control”.
